Reference: patent publication US9708336B2, “Metallo-beta-lactamase inhibitors” (priority 2014, dated 2017)
Where two headings read alike, the source gives them in different places.

Legend:
[1] = tested on: Serratia marcescens expressing IMP-1 (CL5741); test: Antibiotic potentiation activity: synergistic concentration (MITC95) with imipenem, OD600 growth; assay type: cell-based; details: for Serratia marcescens expressing IMP-1 (CL5741) MITC95: concentration giving 95% inhibition of bacterial growth
Summary of the method: (§1)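 Clinical MBL-producing strains (E. coli NDM-1, S. marcescens IMP-1, K. pneumoniae VIM-1) from overnight plates were diluted 1:100 into 1.1×CAMHB. Compound was tested with imipenem at 4 μg/ml (optionally 1 μg/ml) or without it. After 22–24 h at 35 °C, growth was read as OD600.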

[2] = tested on: Escherichia coli expressing NDM-1 (CLB30016); test: as above; assay type: cell-based; details: for Escherichia coli expressing NDM-1 (CLB 30016) MITC95: concentration giving 95% inhibition of bacterial growth
Summary of the method: as §1

[3] = tested on: Klebsiella pneumoniae expressing VIM-1 (IHMA599644); test: as above; assay type: cell-based; details: for Klebsiella pneumoniae expressing VIM-1 (IHMA 599644) MITC95: concentration giving 95% inhibition of bacterial growth
Summary of the method: as §1

[4] = target: IMP-1 (Serratia marcescens, UniProt P52699); test: biochemical; assay type: biochemical; details: read-out: IMP-1 IC50
Chain of IMP-1 (P52699 whole entry, looked up): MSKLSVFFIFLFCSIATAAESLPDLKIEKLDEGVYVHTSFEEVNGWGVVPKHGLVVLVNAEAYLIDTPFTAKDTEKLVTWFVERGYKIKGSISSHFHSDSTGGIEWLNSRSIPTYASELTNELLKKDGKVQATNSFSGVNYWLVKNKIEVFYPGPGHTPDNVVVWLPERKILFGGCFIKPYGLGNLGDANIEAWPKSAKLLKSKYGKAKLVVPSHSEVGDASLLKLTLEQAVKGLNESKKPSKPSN

[5] = target: NDM-1 (Klebsiella pneumoniae, UniProt C7C422); test: biochemical; assay type: biochemical; details: read-out: NDM-1 IC50
Chain of NDM-1 (C7C422 whole entry, looked up, species assumed): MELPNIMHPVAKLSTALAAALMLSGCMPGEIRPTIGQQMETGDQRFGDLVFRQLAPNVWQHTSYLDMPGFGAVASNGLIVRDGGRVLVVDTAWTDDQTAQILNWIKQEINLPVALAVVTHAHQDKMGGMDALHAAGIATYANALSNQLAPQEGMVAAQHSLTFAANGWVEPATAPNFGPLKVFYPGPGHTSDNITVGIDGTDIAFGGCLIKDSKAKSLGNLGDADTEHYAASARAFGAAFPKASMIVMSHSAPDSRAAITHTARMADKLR

[6] = target: VIM-1 (Pseudomonas aeruginosa (strain ATCC 15692 / DSM 22644 / CIP 104116 / JCM 14847 / LMG 12228 / 1C / PRS 101 / PAO1), UniProt A0A0F7KYQ8); test: Enzyme activity: determination of IC50, fluorescence assay with CCF2-FA substrate (VIM-1); assay type: biochemical
[7] = Serratia marcescens CL5741 (IMP-1), 95% growth inhibition
[8] = (CLB30016, NDM-1), 95% growth inhibition
[9] = Klebsiella pneumoniae IHMA599644 (VIM-1), 95% growth inhibition
[10] = IMP-1 enzyme, CCF2-FA substrate
[11] = NDM-1 enzyme, CCF2-FA substrate
[12] = VIM-1 enzyme, CCF2-FA substrate, read-out: VIM-1 IC50
[13] = Serratia marcescens expressing IMP-1 (CL5741), 95% growth inhibition
[14] = Escherichia coli expressing NDM-1 (CLB30016), 95% growth inhibition
[15] = Klebsiella pneumoniae expressing VIM-1 (IHMA599644), 95% growth inhibition
[16] = IMP-1 enzyme, CCF2-FA fluorescence assay
[17] = NDM-1 enzyme, CCF2-FA fluorescence assay
[18] = VIM-1 enzyme, CCF2-FA fluorescence assay, read-out: VIM-1 IC50
[19] = CL5741 (IMP-1), 95% inhibition of bacterial growth
[20] = CLB30016 (NDM-1), 95% inhibition of bacterial growth
[21] = IHMA599644 (VIM-1), 95% inhibition of bacterial growth
[22] = fluorescence assay with CCF2-FA substrate
[23] = fluorescence assay with CCF2-FA substrate, read-out: VIM-1 IC50
[24] = VIM-1 IC50, fluorescence assay with CCF2-FA substrate
[25] = VIM-1 IC50, VIM-1 enzyme, CCF2-FA substrate

Structure (SMILES): NS(=O)(=O)c1c(CCCCCCO)ccc(CCCCCCO)c1-c1nn[nH]n1 [Example 543, 3,6-Bis(6-hydroxyhexyl)-2-(2H-tetrazol-5-yl)benzenesulfonamide]
- Serratia marcescens MITC95 [1, 7]: 12.5 µM
- Escherichia coli MITC95 [2, 8]: 50 µM
- Klebsiella pneumoniae MITC95 [3, 9]: >200 µM
- IC50 [4, 10]: 1.16 nM
- IC50 [5, 11]: 2.62 nM
- IC50 [6, 12]: 3.21 nM

Structure (SMILES): Cc1ccc(-c2ccc(C(F)(F)F)c(S(N)(=O)=O)c2-c2nn[nH]n2)cc1 [Example 268, 4′-methyl-2-(2H-tetrazol-5-yl)-4-(trifluoromethyl)-[1,1′-biphenyl]-3-sulfonamide]
- Serratia marcescens MITC95 [1, 13]: 0.25 µM
- Escherichia coli MITC95 [2, 14]: 2.229 µM
- Klebsiella pneumoniae MITC95 [3, 15]: 9.375 µM
- IC50 [4, 16]: 1.64 nM
- IC50 [5, 17]: 2.01 nM
- IC50 [6, 18]: 0.898 nM

Structure (SMILES): NS(=O)(=O)c1c(C(F)(F)F)ccc(N2CCC(N3CCNCC3)C2)c1-c1nnn[nH]1 (stereo not drawn) [Example 770, 3-(3-piperazin-1-ylpyrrolidin-1-yl)-2-(1H-tetrazol-5-yl)-6-(trifluoromethyl) benzenesulfonamide]
- Serratia marcescens MITC95 [1, 19]: 50 µM
- Escherichia coli MITC95 [2, 20]: 50 µM
- Klebsiella pneumoniae MITC95 [3, 21]: 3.125 µM
- IC50 [4, 22]: 251 nM
- IC50 [5, 22]: 366 nM
- IC50 [6, 23]: 7.51 nM

Structure (SMILES): NS(=O)(=O)c1nccc(N2CCC(N3CCCC3)CC2)c1-c1nnn[nH]1 [Example 222, 4-(4-pyrrolidin-1-ylpiperidin-1-yl)-3-(1H-tetrazol-5-yl)pyridine-2-sulfonamide]
- Serratia marcescens expressing IMP-1 (CL5741) MITC95 [1]: 75 µM
- Escherichia coli expressing NDM-1 (CLB 30016) MITC95 [2]: 12.5 µM
- Klebsiella pneumoniae expressing VIM-1 (IHMA 599644) MITC95 [3]: 12.5 µM
- IC50 [4, 22]: 20000 nM
- IC50 [5, 22]: 5150 nM
- IC50 [6, 23]: 794 nM

Structure (SMILES): Nc1ncnc2cc(-c3ccc(C(F)(F)F)c(S(N)(=O)=O)c3-c3nnn[nH]3)ccc12 [Example 749, 3-(4-aminoquinazolin-7-yl)-2-(1H-tetrazol-5-yl)-6-(trifluoromethyl)benzenesulfon-amide]
- Serratia marcescens MITC95 [1, 19]: 12.5 µM
- Escherichia coli MITC95 [2, 20]: 3.125 µM
- Klebsiella pneumoniae MITC95 [3, 21]: 6.25 µM
- IC50 [4, 22]: 4.12 nM
- IC50 [5, 22]: 2.35 nM
- IC50 [6, 24]: 0.262 nM

Structure (SMILES): NS(=O)(=O)c1c(C(F)(F)F)ccc(-c2ccc(C3CN(CCC4CCNCC4)C3)cc2)c1-c1nnn[nH]1 [Example 803, 4′-[1-(2-piperidin-4-ylethyl)azetidin-3-yl]-2-(1H-tetrazol-5-yl)-4-(trifluoromethyl)biphenyl-3-sulfonamide]
- Serratia marcescens MITC95 [1, 19]: 6.25 µM
- Escherichia coli MITC95 [2, 20]: 6.25 µM
- Klebsiella pneumoniae MITC95 [3, 21]: 100 µM
- IC50 [4, 22]: 13 nM
- IC50 [5, 22]: 4.87 nM
- IC50 [6, 24]: 13.2 nM

Structure (SMILES): NS(=O)(=O)c1cccc(-c2cnc3cnccn23)c1-c1nnn[nH]1 [Example 651, 3-imidazo[1,2-a]pyrazin-3-yl-2-(1H-tetrazol-5-yl)benzenesulfonamide]
- Serratia marcescens MITC95 [1, 7]: 37.5 µM
- Escherichia coli MITC95 [2, 8]: 1.172 µM
- Klebsiella pneumoniae MITC95 [3, 9]: 6.25 µM
- IC50 [4, 10]: 900 nM
- IC50 [5, 11]: 9.85 nM
- IC50 [6, 25]: 40.7 nM

Structure (SMILES): Cc1ccccc1Cc1cccc(S(N)(=O)=O)c1-c1nnn[nH]1 [Example 155, 3-(2-methylbenzyl)-2-(1H-tetrazol-5-yl)benzenesulfonamide]
- Serratia marcescens expressing IMP-1 (CL5741) MITC95 [1]: 2.344 µM
- Escherichia coli expressing NDM-1 (CLB 30016) MITC95 [2]: 3.125 µM
- Klebsiella pneumoniae expressing VIM-1 (IHMA 599644) MITC95 [3]: 75 µM
- IC50 [4, 22]: 92.7 nM
- IC50 [5, 22]: 3 nM
- IC50 [6, 23]: 16.2 nM

Structure (SMILES): Nc1ccc(-c2ccc(C(F)(F)F)c(S(N)(=O)=O)c2-c2nnn[nH]2)nc1 [Example 562, 3-(5-aminopyridin-2-yl)-2-(1H-tetrazol-5-yl)-6-(trifluoromethyl)benzenesulfonamide]
- Serratia marcescens MITC95 [1, 7]: 0.3906 µM
- Escherichia coli MITC95 [2, 8]: 0.5859 µM
- Klebsiella pneumoniae MITC95 [3, 9]: 3.125 µM
- IC50 [4, 10]: 7.55 nM
- IC50 [5, 11]: 5 nM
- IC50 [6, 12]: 2.35 nM

Structure (SMILES): NS(=O)(=O)c1c(C(F)(F)F)ccc(-c2cccc(N3CCC(O)CC3)c2)c1-c1nnn[nH]1 [Example 741, 3′-(4-hydroxypiperidin-1-yl)-2-(1H-tetrazol-5-yl)-4-(trifluoromethyl)biphenyl-3-sulfonamide]
- Serratia marcescens MITC95 [1, 7]: 25 µM
- Escherichia coli MITC95 [2, 8]: 25 µM
- Klebsiella pneumoniae MITC95 [3, 9]: >200 µM
- IC50 [4, 10]: 6.12 nM
- IC50 [5, 11]: 4.65 nM
- IC50 [6, 12]: 2.74 nM

Structure (SMILES): NS(=O)(=O)c1c(CC2CNC2)ccc(-c2ccc(C3CCNCC3)cc2)c1-c1nn[nH]n1 [Example 469, 4-(azetidin-3-ylmethyl)-4′-(piperidin-4-yl)-2-(2H-tetrazol-5-yl)-[1,1′-biphenyl]-3-sulfonamide]
- Serratia marcescens MITC95 [1, 13]: 1.563 µM
- Escherichia coli MITC95 [2, 14]: 0.7813 µM
- Klebsiella pneumoniae MITC95 [3, 15]: 1.563 µM
- IC50 [4, 16]: 29.7 nM
- IC50 [5, 17]: 10.7 nM
- IC50 [6, 18]: 7.65 nM

Structure (SMILES): NC1CCC(N[C@H]2CC[C@H](c3ccc(C(F)(F)F)c(S(N)(=O)=O)c3-c3nnn[nH]3)CC2)C1 (stereo partly drawn) [Example 691, 3-{4-[(3-aminocyclopentyl)amino]cyclohexyl}-2-(1H-tetrazol-5-yl)-6-(trifluoromethyl)benzene sulfonamide]
- Serratia marcescens MITC95 [1, 7]: 3.125 µM
- Escherichia coli MITC95 [2, 8]: 0.7813 µM
- Klebsiella pneumoniae MITC95 [3, 9]: 3.125 µM
- IC50 [4, 10]: 51.8 nM
- IC50 [5, 11]: 10.6 nM
- IC50 [6, 25]: 6.13 nM

Structure (SMILES): CC(C)[C@@H](N)CN1CCC(c2ccc(-c3cccc(S(N)(=O)=O)c3-c3nnn[nH]3)cc2)CC1 [Example 614, 3-[4-[1-[(2R)-2-amino-3-methyl-butyl]-4-piperidyl]phenyl]-2-(1H-tetrazol-5-yl)benzenesulfonamide]
- Serratia marcescens MITC95 [1, 7]: 1.563 µM
- Escherichia coli MITC95 [2, 8]: 1.172 µM
- Klebsiella pneumoniae MITC95 [3, 9]: >200 µM
- IC50 [4, 10]: 11.6 nM
- IC50 [5, 11]: 5.89 nM
- IC50 [6, 12]: 505 nM

Structure (SMILES): NS(=O)(=O)c1cccc(CCC2CCCCC2)c1-c1nnn[nH]1 [Example 164, 3-(2-cyclohexylethyl)-2-(1H-tetrazol-5-yl)benzenesulfonamide]
- Serratia marcescens expressing IMP-1 (CL5741) MITC95 [1]: 0.3906 µM
- Escherichia coli expressing NDM-1 (CLB 30016) MITC95 [2]: 1.563 µM
- Klebsiella pneumoniae expressing VIM-1 (IHMA 599644) MITC95 [3]: 200 µM
- IC50 [4, 22]: 5.5 nM
- IC50 [5, 22]: 2.93 nM
- IC50 [6, 23]: 50.6 nM

Structure (SMILES): NS(=O)(=O)c1cccc(-c2ccc(CN3CCC(O)CC3)cc2)c1-c1nnn[nH]1 [Example 394, 4′-[(4-hydroxypiperidin-1-yl)methyl]-2-(1H-tetrazol-5-yl)biphenyl-3-sulfonamide]
- Serratia marcescens MITC95 [1, 13]: 3.125 µM
- Escherichia coli MITC95 [2, 14]: 2.344 µM
- Klebsiella pneumoniae MITC95 [3, 15]: >200 µM
- IC50 [4, 16]: 195 nM
- IC50 [5, 17]: 11.3 nM
- IC50 [6, 18]: 658 nM

Structure (SMILES): NS(=O)(=O)c1c(C2CC2)ccc(-c2ccnc3ccccc23)c1-c1nn[nH]n1 [Example 275, 6-cyclopropyl-3-(quinolin-4-yl)-2-(2H-tetrazol-5-yl)benzenesulfonamide]
- Serratia marcescens MITC95 [1, 13]: 0.7813 µM
- Escherichia coli MITC95 [2, 14]: 3.125 µM
- Klebsiella pneumoniae MITC95 [3, 15]: 9.375 µM
- IC50 [4, 16]: 6.7 nM
- IC50 [5, 17]: 3.68 nM
- IC50 [6, 18]: 0.637 nM

Structure (SMILES): NS(=O)(=O)c1c(CC2CCN(CCO)CC2)ccc(-c2ccc(C3CNC3)cc2)c1-c1nn[nH]n1 [Example 607, 3-[4-(azetidin-3-yl)phenyl]-6-[[1-(2-hydroxyethyl)-4-piperidyl]methyl]-2-(2H-tetrazol-5-yl)benzenesulfonamide]
- Serratia marcescens MITC95 [1, 7]: 3.125 µM
- Escherichia coli MITC95 [2, 8]: 1.563 µM
- Klebsiella pneumoniae MITC95 [3, 9]: 1.563 µM
- IC50 [4, 10]: 42.2 nM
- IC50 [5, 11]: 11.3 nM
- IC50 [6, 12]: 2.07 nM

Structure (SMILES): NS(=O)(=O)c1c(C(F)(F)F)ccc(CC[C@H]2CC[C@H](N)CC2)c1-c1nn[nH]n1 [Example 431, 3-(2-((1r,4s)-4-aminocyclohexyl)ethyl)-2-(2H-tetrazol-5-yl)-6-(trifluoromethyl)benzenesulfonamide]
- Serratia marcescens MITC95 [1, 13]: 0.125 µM
- Escherichia coli MITC95 [2, 14]: 2.563 µM
- Klebsiella pneumoniae MITC95 [3, 15]: 1.531 µM
- IC50 [4, 16]: 3.75 nM
- IC50 [5, 17]: 17.9 nM
- IC50 [6, 18]: 0.432 nM

Structure (SMILES): CC(C1CCN(c2ccnc(S(N)(=O)=O)c2-c2nnn[nH]2)CC1)N1CCOCC1 (stereo not drawn) [Example 223, 4-[4-(1-morpholin-4-ylethyl)piperidin-1-yl]-3-(1H-tetrazol-5-yl)pyridine-2-sulfonamide]
- Serratia marcescens expressing IMP-1 (CL5741) MITC95 [1]: 25 µM
- Escherichia coli expressing NDM-1 (CLB 30016) MITC95 [2]: 4.688 µM
- Klebsiella pneumoniae expressing VIM-1 (IHMA 599644) MITC95 [3]: 200 µM
- IC50 [4, 22]: 1300 nM
- IC50 [5, 22]: 157 nM
- IC50 [6, 23]: 583 nM
